In turn, `O=C1CCN(c2cc3c(cc2-c2ccc(F)cc2)NC(=O)CC(c2cccc(-n4ccnc4)c2)=N3)CC1` had a melting point of 204 °C. The result for `O=C1Nc2ccccc2CCC1N1C(=O)c2ccccc2C1=O` (centres undefined) reads 261 to 263 °C. Under `C=C(C)COc1ccc(F)cc1CN(CC)c1ccc(C(=O)O)nn1` stands 121 to 122 °C; under `COc1ccc2c(c1)c1c3c(c(-c4ccccc4Cl)cc1n2CCCO)C(=O)NC3=O`, 228 to 230 °C.

Consider `COC(=O)Cc1ccccc1S(=O)(=O)NC(=S)Nc1nc(OC)nc(OC)n1`, for which the melting point fell in the range of 164 to 168 °C. In turn, `CC(=O)NCCCC(=O)c1ccc(Cl)cc1CCC(=O)O` showed a melting point of 90 to 92 °C. Under `COc1ccc(CCNC(=O)CN(C(=O)OCc2ccccc2)c2ccc(C)cc2)cc1OC` stands 81 to 85 °C; under `Cc1nc(N2CCc3ccccc3CC2)c(C#N)c(=O)n1N(C)C`, 134 to 136 °C. As to `CCN=C1SC(=NOC(=O)N(C)SC(Cl)(Cl)Cl)C(C)(C)S1`, the melting point was in the range of 69 to 71 °C. Under `CC(C)CCNC(Nc1cc(C(F)(F)F)cc(C(F)(F)F)c1)=C(C#N)C#N` stands 158 to 159 °C. The result for `CN(C)c1ccc(NC(=O)N(C)c2cccc(-c3ccc(CC4SC(=O)NC4=O)cc3)c2)cc1` (centres undefined) reads 102 °C; that for `Fc1cccc(F)c1-c1ncc(C=Cc2ccc(Cl)cc2)nn1`, 135 to 140 °C; that for `O=C(NC1CCCCNC1=O)c1cccnc1` (centres undefined), 177 to 178 °C. Under `CCN(c1ccc([N+](=O)[O-])cc1C#N)S(=O)(=O)c1ccc(C)cc1` stands 135 to 136 °C; under `Cc1cccc(N2CCN(CCc3nc4cc(Br)c5ccccc5c4n3C)CC2)c1`, 155 to 157 °C; under `O=C1N(Cc2ccccn2)c2cccc(Br)c2C1(O)c1cc2c(cc1O)OCC2` (centres undefined), greater than 225 °C.

`Cc1ccc2cccc(OCc3c(Cl)ccc(N(C)C(=O)CNC(=O)C=Cc4ccc(C(=O)O)cc4)c3Cl)c2n1` had a melting point of 238 to 241 °C. `OC(CCCc1ccc(Cl)cc1)(Cc1ccc(Cl)cc1)c1ccc(OCc2ccc3ccccc3n2)cc1` (centres undefined) displayed a melting point of 123 to 124 °C. The result for `Cc1ccc(C=CC(=O)N[C@@H](Cc2ccc(OCCc3nc(-c4ccccc4)oc3C)c(Br)c2)C(=O)O)cc1` reads 243 to 245 °C. The result for `COc1ccc(CSc2nc(O)cc(C(F)(F)F)n2)cc1` reads 169 to 170 °C; that for `O=C1OCc2c(c3cc(-c4ccc(-c5ccccc5)cc4)ccc3n2Cc2ccccc2)C1=O`, 254 to 255 °C. `O=C1C(=CNCCO)Cc2cc(Cl)ccc21` gave a melting point of 164 to 166 °C.

`O=C(O)c1nccn1C(c1ccccc1)c1ccccc1` displayed a melting point of 191 °C. In turn, `CCCOc1ccc(S(=O)(=O)N2CCN(CC)CC2)cc1-c1nc2cc3ncn(Cc4ccccc4Cl)c3cc2c(=O)[nH]1` came in with a melting point of 225 to 226 °C. The result for `O=C(CO)c1c[nH]c2cc(OCc3ccccc3)ccc12` reads 194 to 195 °C; that for `CCCC(=NOCC)C1=C(O)CC(c2c(C)c(C)c(O)c(C)c2C)CC1=O` (centres undefined), 134 °C.

The compound `c1cn(CCCc2ccc(OCc3coc(-c4cc5c(s4)CCCC5)n3)cc2)cn1` displayed a melting point of 83 to 84 °C. Compound `CC(=O)c1ccc(C2CCN(C(C)=O)CC2)c(N)c1` registered a melting point of 220 to 222 °C. On to `O=C1CC(c2ccc(Cl)c(Cl)c2)Cc2[nH]c3ccc(Cl)cc3c(=O)c21` (centres undefined), for which the melting point was greater than 325 °C. Under `COCCOc1ccc(/C=C/C(=O)O)c(Oc2ncc(Br)s2)c1` stands 144 to 145 °C; under `COc1cccc([C@H]2O[C@H](CC(=O)NCc3ccc(C(=O)O)cc3)C(=O)N(CC(C)(C)CO)c3ccc(Cl)cc32)c1OC`, 143 to 144 °C; under `Cc1ccncc1-c1cccc(OC2SCC(O)C(O)C2O)c1` (centres undefined), 143 °C.

`C=C1N(c2ccc(Cl)cc2)C(=O)OC12CCN(CCC=C(c1ccc(F)cc1)c1ccc(F)cc1)CC2`: the melting point lay within 186 to 188 °C.

The compound `CCCc1c(COc2ccc(C(=O)c3cccc(C#N)c3)cc2)ccc(C(C)=O)c1O` showed a melting point of 146 to 148 °C.

Compound `CCOC(=O)c1cc(CC(C(=O)OCC)C(=O)OCC)c2ccccn2c1=O` displayed a melting point of 105 to 108 °C. Under `CCOC(=O)Cc1csc(NC(=O)C(N)Cc2ccc(F)cc2)n1` (centres undefined) stands 124 to 127 °C. The compound `CCCCCC(=O)NN` gave a melting point of 72.5 to 73.9 °C. The result for `O=C(Cc1ccc(CC(=O)Oc2cc(O)cc(O)c2)cc1)Oc1cc(O)cc(O)c1` reads 220 to 225 °C; that for `COc1cc(C=O)ccc1OCCCl`, 60 to 61 °C; that for `Cc1c(C)c2ccc(OCCCN3CCC(NC(=O)c4ccc(N)cc4)CC3)cc2oc1=O`, 242 to 245 °C. The result for `CCNC(=O)c1cc2ccc(OC)cc2n1CCNC(C)=O` reads 135 to 136 °C; that for `CS(=O)(=O)c1ccc(-n2cc(C(F)(F)F)nc2-c2ccsc2)cc1`, 194 to 197 °C; that for `O=[N+]([O-])c1cc2nc(O)c(O)nc2c2c1CCCC2`, greater than 300 °C. Under `CCOc1ccc2c(c1)n(C1CCCCC1)c(=O)n2Cc1ccc(C(=O)NC(C)(C)CC)cc1OC` stands 164 °C.

Consider `CCc1cc2[nH]c(=O)cc(Cl)c2c(CC)n1`, for which the melting point lay within 172 to 174 °C.

For the compound `CCOC(=O)Nc1cc(F)cc(CCCCC(=O)OC)c1`, the melting point lay within 61 to 62 °C. `CC1(C)CCC(C)(C)c2cc(C(O)COc3ccc(C(=O)NN4CCCCC4)c(O)c3)ccc21` (centres undefined) came in with a melting point of 124 °C. The result for `COP(=O)(OC)C1CC(c2ccc([N+](=O)[O-])cc2)=NO1` (centres undefined) reads 156 to 158 °C; that for `C#CC1C2=C(c3ccc(OCc4ccccc4)cc3N1C(=O)Oc1ccccc1)C(O[Si](C)(C)C(C)(C)C)CCC2` (centres undefined), 76.5 to 78.2 °C.

The compound `Cc1cccc2c3c([nH]c12)CCC(N1CCCC1)C3` (centres undefined) gave a melting point of 159 to 163 °C. The result for `COC(=O)c1c(C(F)F)nc(C(F)(F)F)c(C(=O)OC)c1CI` reads 78 to 79 °C. Under `CCOC(=O)C(=O)N(O)Cc1ccc2c(c1)OCc1ccccc1C2=O` stands 52 to 62 °C; under `CCn1c(Br)c(Br)c(C#N)c1Br`, 108 to 110 °C; under `COc1ccc(/C(=C/C=C/C(=O)O)C2CCCCC2)cc1`, 130 to 132 °C.

`C#CC1(O)C=CC2C3CCC4=CC(=O)CCC4(C)C3CCC21C` (centres undefined): the melting point stood at 206 °C. Consider `O=C(O)CC1=CSCCS1`, for which the melting point came to 82 °C.

Compound `CCCCCCCCCC(=O)OC(=C(OC(=O)CCCCCCCCC)c1ccccn1)c1ccccn1` came in with a melting point of 89 to 90 °C. Under `COCc1nnc(-c2cccnc2)n1-c1c(Cl)c(C)cc2nc(OC)c(OC)nc12` stands 183 to 184 °C; under `Cc1cc(-c2nc3cc(C(C)(C)C)c(Cl)nn3c2-c2ccnc(N)c2)ccc1F`, 232 to 233 °C; under `Cc1cc(C(=O)O)c2[nH]c3c(c2c1)CCCC3`, 225 °C. Under `Fc1ccc(-c2cc(Cl)c3cc(F)ccc3n2)cc1` stands 130 to 133 °C; under `Nc1cccc2c1nnn2C1CCCCC1`, 54 to 60 °C; under `O=C1CCC(c2ccc(-n3cnc(CO)c3)cc2)=NN1`, 214 to 215 °C. Under `CC(C)(C#N)c1cc(CO)cc(Cn2cncn2)c1` stands 111 to 113 °C; under `CC(C)c1ccc(C(=O)CC(c2ccccc2)c2ccccc2)c(C(C)C)c1OS(N)(=O)=O`, 149 to 152 °C. Take `CC(=O)NCc1cn(-c2ccc(-n3cncn3)c(F)c2)nn1`: the melting point worked out at 223 °C.

`CSc1noc(-c2ccc(O)cc2)c1C#N` registered a melting point of 194 to 196 °C. Under `Oc1ccc(-c2cc3cc(O)cc(CBr)c3o2)cc1` stands 337 to 339 °C; under `O=c1[nH]c2c(c(=O)n1CCCN1CCN(c3ccccc3OCC(F)(F)F)CC1)CCCC2`, 148 to 150 °C; under `CCn1ccc(Nc2cc(Br)cn(C)c2=O)n1`, 165 to 167 °C. The result for `CCCCOCC(CN1C(=O)NC(=O)C(CC)(c2ccccc2)C1=O)OC(N)=O` (centres undefined) reads 104 °C; that for `CCN(C)c1nc2cc(-c3ccccc3)nnc2c2ccccc12`, 130 to 133 °C.

For `CCCCCCCCC1(C#N)CCC(c2ccc(-c3ccc(CCCC)cc3)cc2)CC1` (centres undefined), the melting point worked out at 52 °C. Under `CCCN(CCC)CCc1ccc(OC)c2[nH]nc(O)c12` stands 198 to 201 °C.

Regarding `CC1(C)CC(Nc2nc(Cl)nc(NC3CC(C)(C)NC(C)(C)C3)n2)CC(C)(C)N1`, the melting point came to 270 °C.

On to `OCc1c(-c2ccc(O)cc2)nnn1-c1ccc(C(F)(F)F)cc1Cl`, for which the melting point was in the range of 181 to 182 °C.

On to `CN1Cc2c(C#CBr)ncn2-c2ccc(F)cc2C1=O`, for which the melting point stood at 167 °C. The result for `CCOc1cc(C=CC(C)=O)ccc1OC` reads 95 to 96 °C.

Turning to `N#Cc1cccc2c(O)c(C(=O)NCc3ccc(Cl)cc3)cnc12`, the melting point is 287 to 289 °C.

The compound `CCOC(=O)N(CC(=O)O)n1nnc2ccccc21` had a melting point of 189 to 192 °C. Regarding `CN1CCc2cc(O)c(O)c(Sc3ccc(F)cc3)c2CC1`, the melting point fell in the range of 105 to 114 °C.

In turn, `CCC1(C(=O)OC)C(=O)Nc2cccc(Cl)c2CC1c1ccc(OC)cc1` (centres undefined) displayed a melting point of 190 to 192 °C.

`CCOC(=O)OCC1OC(n2cc(C=CBr)c(=O)[nH]c2=O)CC1Cl` (centres undefined) showed a melting point of 181 °C. Under `COC1=C(Cl)C(Cl)C(C(=O)C2(C3=CCCCC3)C=CC(OC)=C(Cl)C2Cl)(C2=CCCCC2)C=C1` (centres undefined) stands 126 to 129 °C; under `O=C(O)Cn1cc(Cc2nc3c(F)c(F)cc(F)c3s2)c2cc(F)ccc21`, 193 to 195 °C; under `O=[N+]([O-])c1cccc2cc(-c3ncns3)[nH]c12`, 186 to 187 °C. Compound `CCCCCCCCNC(=O)NCCCCC` gave a melting point of 65 to 65.5 °C. The result for `COC(=O)c1nc(NCC(O)CO)cnc1[N+](=O)[O-]` (centres undefined) reads 107 to 109 °C; that for `CCOC(=O)/C(=N\OCC(=O)N1CCCCCC1)c1csc(N)n1`, 163 to 164 °C.

(Values after a melting point compilation (Tetko et al.; mined from patent text by program, amines drawn as free bases though some values may be those of a salt).)
